Assay results: patent publication US20240384232A1, “CLINICAL-GRADE THERAPEUTIC PROGENITORS GENERATED FROM TANKYRASE/PARP-INHIBITED PLURIPOTENT STEM CELL BANKS” (THE JOHNS HOPKINS UNIVERSITY, priority 2022, published 2024)
“Also recorded” adds a separate entry of the source.

Key:
[1] = system: LIF-4i UTIRN-CB-hiPSC (E32C6XF); assay: Cell attachment during passaging onto Vitronectin-XF-coated plates; type: cell-based, human; conditions: overnight exposure, 2-5 uM
Description: FIGS. 9A-9C. Optimization of the transition step from E8 primed hPSC conditions to LIF-4i TIRN conditions: clonal cell passaging. (9A) Clonal efficiency during the first passage in LIF-4i TIRN conditions for hESC line (RUES01). Supplementation of LIF-3i with forskolin and purmophamine (i.e., LIF-5i) and brief adaptation of primed hPSC was previously shown to facilitate clonal transition and survival of primed cells to TIRN hPSC when subsequently cultured continuously in LIF-3i TIRN conditions on feeders. […] Therefore, the brief LIF-5i adaptation period was limited to only overnight exposure prior to passaging. […] (9A—middle, right panels) In contrast, high density culture in E8 (e.g., up to 6 days) prior to passaging in LIF-4i negatively impacted the transition into LIF-4i TIRN conditions. Photomicrographs represent primed cultures immediately prior to passaging into LIF-4i TIRN conditions. (9B) Requirement for ROCK inhibitor Y27632during passaging.
FIG. 7A outlines the transition between primed (i.e. E8) and the LIF-4i FF-TIRN-reverted system. Upon passaging into LIF-4i, hPSC immediately adopt a smaller dome-shaped morphology that expands from single cells. Photomicrographs document the morphology of the hiPSC line 6.2 during the first passages into LIF-4i (bulk passaging without colony picking) and after stable expansion for 10 consecutive passages (FIG. 7B). […]

E5C3 CB-hiPSC = assay: Retention of TRA-1-81+SSEA4+ phenotype by FACS after removing single inhibitors from LIF-4i; type: cell-based, human; conditions: for Effect of removing the inhibitor from LIF-4i on the TRA-1-81+SSEA4+ phenotype: E5C3 kept in LIF-4i for 3 passages (6 days), then inhibitor removed, feeder-free
Description: FIGS. 8A-8C. […] Alternatively, E5C3 CB-hiPSC were maintained in LIF-4i for 3passages (6 days) and then cither XAV939 (E5C3-XAV939, square datapoints, dotted line) or Go6983 (E5C3 LIF-3i, triangles, dashed line) were removed from the LIF-4i formulation. […] (8B) Representative photomicrographs and flow cytometry plots of CB-hiPSC when continuously cultured in LIF-4i (LIF+4i, 6 passages), or when cultured in LIF-4i for 3 passages and then transferred into FF conditions that omitted for 3 passages the PKC inhibitor Go6983 (LIF+3i) or the tankyrase/PARP inhibitor XAV939 (without XAV939) or without XAV939 and reducing the concentration of CHIR99021 (without XAV939, CHIR 1 uM).

[2] = system: Primed E8 and LIF-4i UTIRN-hiPSC; assay: DNA damage induction with radiomimetic, Western blot of DNA repair machinery; type: cell-based, human; conditions: 4 hours treatment; TIRN-hPSC vs primed E8 hPSC
Description: FIGS. 20A-20B. Induction of DNA damage in primed hPSC and XF/FF UTIRN-hPSC following exposure to the radiomimetic DNA damage inducing agent neocarzinostatin (NCS). Unlike somatic cells, naïve mouse embryonic stem cells (ESC) employ homologous recombination machinery to repair double strand breaks. However, imbalanced levels of DNAPKc in mouse ESC results into poor capacity for rejoining of radiation-induced DNA double-strand breaks in comparison to human primed ESC.
Methods. Conventional (primed) XF CB-hiPSC lines and control H9 hESC were grown in E8 medium. Isogenic TIRN-hPSC were cultured in parallel using LIF-4i. For Western blotting, whole cell lysates were prepared in RIPA buffer, 1.5 mM EDTA with protease inhibitor. Protein lysates were quantified using the BCA assay. Equal amounts of total protein lysate (e.g., 20 μg) were loaded into precast polyacrylamide gradient gels, size-separated using the Mini-PROTEAN electrophoresis system and blotted onto PDVF membranes for chemiluminescent analysis. Primed hPSC and isogenic TIRN-hPSC were assayed for endogenous DNA damage during routine culture (FIG. 20) or upon DSB induction using the radiomimetic agent neocarzinostatin (NCS). In these experiments, hPSC were treated for 4 hours with NCS before preparing lysates. […]

[3] = system: tankyrase PARylating activity and PARP1-mediated PARylation; conditions: 293T cells; cited from earlier work
[4] = system: tankyrases 1 and 2 (TANK 1/2) and AXIN-1 proteins; assay: Western blot of tankyrase-regulated proteins in primed vs LIF-4i TIRN cultures; type: cell-based, human; conditions: LIF-4i (contains XAV939) vs isogenic primed E8
Description: Western blots were performed of primed vs. TIRN lysates of hESC RUES02 and three independent XF/FF UTIRN CB-hiPSC lines (E32C1XF, E32C4XF, E32C6XF). ACTIN, HSP90 and total STAT3 served as internal loading controls. Western blots of XAV939-inhibited proteolysis of tankyrases 1 and 2(TANK 1/2) and AXIN-1 proteins in isogenic primed vs. TIRN conditions for TIRN-reverted RUES02 and XF/FF CB-hiPSC lines. Western blot analysis of hPSC lines in primed (E8) and naïve (LIF-4i) cultures for expression of phosphorylated (phospho.) STAT3 and ERK1/2, tankyrase 1/2 and axin1.
Cell lysates were prepared from parallel primed (E8) and TIRN (LIF-4i) cultures and 20 or 35 ug of proteins were loaded per lane.

C[C@@H](N)[C@H]1CC[C@H](C(=O)Nc2ccncc2)CC1 [Y-27632]
Promotion of cell attachment during passaging [1]: sufficient and required to promote efficient attachment

COc1ccc2c(c1)c(C1=C(c3c[nH]c4ccccc34)C(=O)NC1=O)cn2CCCN(C)C [Go6983]
Effect of removing the inhibitor from LIF-4i on the TRA-1-81+SSEA4+ phenotype (E5C3 CB-hiPSC): hiPSC started differentiating after a few days without Go6983

neocarzinostatin [NCS]
phospho-H2AX response to DSB induction [2]: elevated levels of phospho-H2AX

Cc1cnc(-c2cnc(NCCNc3ccc(C#N)cn3)nc2-c2ccc(Cl)cc2Cl)[nH]1 [CHIR99021, 6-[[2-[[4-(2,4-Dichlorophenyl)-5-(5-methyl-1H-imidazol-2-yl)-2-pyrimidinyl]amino]ethyl]amino]-3-pyridinecarbonitrile]
Rescue of XAV939 depletion by reduced CHIR99021 concentration (E5C3 CB-hiPSC; E5C3, without XAV939, CHIR99021 @ 1 uM): not rescued

Oc1nc(-c2ccc(C(F)(F)F)cc2)nc2c1CSCC2 [XAV939]
Effect of removing the inhibitor from LIF-4i on the TRA-1-81+SSEA4+ phenotype (E5C3 CB-hiPSC): rapid loss of TRA-1-81 and SSEA4 expression | Effect on tankyrase and PARP1-mediated PARylation [3]: downregulate tankyrase PARylating activity, but also PARP1-mediated PARylation | Levels of tankyrase-PARylation-regulated proteins (AXIN1, tankyrases) [4]: tankyrase auto-PARylation and proteolysis is inhibited by XAV939; also recorded: upregulated
